# From patent US7019000B1, “Method of treating a disease condition caused or exacerbated by an HPV” (Institute of Molecular & Cell Biology, priority 1998, dated 2006)
# Assays:
# [1] = molecular target: T1, binding of E6 with E6AP and E6BP (Human papillomavirus type 16, UniProt P03126); parameters: species or system HPV-16
# T1 construct: The full length HPV16 E6 gene was amplified via polymerase chain reaction and cloned in the vector pGeX4T2; made in house; host or cells: E. coli strain AB1899
# T1 sequence (P03126 whole entry): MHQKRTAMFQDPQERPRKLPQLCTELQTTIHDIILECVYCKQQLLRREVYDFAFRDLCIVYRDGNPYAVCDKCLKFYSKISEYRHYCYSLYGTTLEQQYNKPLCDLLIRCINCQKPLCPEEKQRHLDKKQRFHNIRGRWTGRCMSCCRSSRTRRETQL
# Source text: BIACORE allows real time analysis of bimolecular interactions without the need for isotopic or enzymatic labelling. BIACORE technology is based on the optical surface plasmon resonance (SPR), a technique that allows for detecting small changes in the refractive index on the surface of a thin gold film coated with a dextran matrix. Typically, one of the binding partners (termed the ligand) is covalently linked to the dextran matrix, while the other partner (termed the analyte) is introduced in a flow passing over the surface. The change in refractive index resulting from the interaction of the molecules is expressed in resonance units (RU): a SPR response of 1000 RU corresponds to a change of the surface concentration of the analyte of 1 ng protein/mm^2. GST-E6AP and GST-E6BP were used as ligands and GSTE6 was used as the analyte. […] Further controls included using the dextran matrix alone or GST as the ligand.
# Binding of GST-E6 to GST-E6BP, GST-E6AP and GST was monitored by surface plasmon resonance (SPR) on a BIACORE 2000 machine (Biacore AB, Uppsala, Sweden). […] Typically 6000–10000 RU of GST, E6BP and E6AP were immobilized on three difference flowcells. Aliquots of purified HPV-16 GST-E6 (7 μM in 10 mM GSH, 50 mM Tris/PBS buffer, pH 8.2) were incubated with either 400 μM compound, or 5 mM EDTA, or 0.6% (170 mM) H2O2 for 2 hrs at room temperature. Then 10 μl of sample was injected at 1 μl/min over the three immobilized ligands using the sequential flow mode. The interactions between GST-E6 and ligands were monitored by the change of resonance signal in arbitrary units (RU).
# [2] = system: HPV containing cell lines as HeLa, SiHa and Caski, compared to HPV-negative cell lines MCF7, HEPG2, (HaCat, HT3, 444); assay: Cell viability (WST1 assay), panel of HPV-positive and HPV-negative cell lines; assay type: cell-based, human
# Protocol: Zinc finger proteins are required for maintenance of cell viability. Preferably, the compounds for use in the present invention are specific in their ability to affect the viability of MPV containing cells, with little or no cytotoxic effects on the cellular functioning of healthy non-MPV containing cells. The viability of MPV-infected cells (and non infected cells) in the presence of compounds of Formulae (I) or (II) can be measured by incubating with the tetrazolium salt WST1 (Roche Molecular Biochemicals, Manneheim Germany) and measuring the absorption readings thereof (WST1 assay).
# All cell lines were obtained from the American Type Culture Collection (Manassas, Va.) unless otherwise noted. SiHa (human cervical epithelial tumor line, HPV16-positive), CaSki (human cervical epithelial tumor line, HPV16-positive), HaCat (immortalized human skin epithelial cell line, HPV-negative), HeLa (human cervical epithelial tumor line, HPV18-positive), 444 (hybrid of HeLa and fibroblast, HPV18-positive) obtained from Eric Stanbridge (Universitv of California, Irvine), MCF7 (human mammary epithelial tumor cell line, HPV-negative), HT3 (human cervical epithelial tumor cell line, HPV-negative) was obtained from the German Cancer Research Institute/DKFZ-Heidelberg, and HepG2, (human liver epithelial tumor cell line, HPV-negative), were grown in Dulbecco's modified Eagle medium (DMEM) supplemented with 10% fetal calf serum, 100 U penicillin and 1000 U streptomycin. Cells were allowed to attach to the surface of microwell dishes overnight and subsequently, incubated with medium containing the zinc ejecting compounds at the concentrations (10–100 μM). Viability of the cells was scored by measuring the absorption of the tetrazolium salt WST1 (Roche Molecular Biochemicals, Mannheim, Germany) in an Elisa-plate reader (Tecan, Salzburg, Austria) at a wavelength of 450 nm and a reference wavelength of 630 nm.
# A total of 10 000 cells per well were plated on 24 well plates, after attachment overnight, they were treated 3 times in 3 days with C16 at 10 μM and 50 μM. The activity of C16 was also compared with that of C4 (azodicarbonamide) which causes ejection of zinc from HIV-1 NCp7 and is currently used in clinical trials for the treatment of AIDS.
# [3] = system: PARP cleavage in HeLa cells; assay: Western blot detection of PARP cleavage, HeLa; assay type: cell-based, human; conditions: 100 μM, one day
# Protocol: (§1) 10^6 cells were plated on 10 cm petri-dishes with 10 ml medium and after attachment overnight, treated with 100 μM C16 or 0.5% DMSO for one day. At the time of cell harvest most C16-treated cells were still attached to the plate. Cells were harvested using a rubber policeman and lysed in 10 mM Hepes buffer, pH 7.2, 150 mM NaCl, 0.2% Nonidet-P40 (NP40) and 1 mM PMSF, followed by centrifugation. 20 μg of protein was loaded onto a 12% SDS-polyacrylamide gel, transferred to a nitrocellulose membrane and the membrane blocked with 5% nonfat dry milk in 20 mM Tris-Cl, pH 7.6, 150 mM NaCl, 0.05% Tween-20 overnight at 4° C. The membrane was then probed with primary antibodies against p53 (Santa Cruz Biotechnology, Santa Cruz, Calif.), β-actin (Sigma, St. Louis, Mo.) or PARP (C210, Centre de Research du Chul, Quebec, Canada) and followed by incubation with horseradish peroxidase-conjugated secondary antibody (Pierce, Rockford, Ill.). Finally, the blot was treated with an enhanced chemiluminescent detection substrate (SuperSignal, Pierce) and autoradiographed.
# (§2) Increases in P53 expression are known to be associated with programmed cell death (apoptosis) (29), therefore PARP cleavage, a hallmark of apoptosis was examined in C16 treated cells.
# [4] = system: PARP cleavage in HaCat cells; assay: Western blot detection of PARP cleavage, HaCat; assay type: cell-based, human; conditions: 100 μM, one day; HPV-negative HaCat cells (mutant p53)
# Protocol: as §1, §2
compound,measurement,setting,value
C1CN(SSN2CCOCC2)CCO1 [Compound C16],inhibitory activity for E6 binding to both E6BP and E6AP (BIACORE),[1],inhibitory activity for E6 binding to both E6BP and E6AP
same,BIACORE (E6BP/E6AP),"[1]; 400 μM compound, 2 hrs at room temperature, GST-E6 7 μM in 10 mM GSH","+ (compound interferes in binding of E6 with E6AP and E6BP, binding is less than 50% of the corresponding E6-DMSO value.)"
same,effective concentration in cell viability assays,[2],50 µM
same,WST1,[2]; 50 μM in cell culture,+
same,WST1-spec,"[2]; 50 μM, HPV containing vs HPV-negative cell lines",+
same,PARP cleavage,[3],PARP cleavage was observed
same,PARP cleavage,[4],not
